From ChEMBL document CHEMBL1687842, “Different genetic elements carrying the tet(W) gene in two human clinical isolates of Streptococcus suis” (2011)
Converted amounts (≈) assume the structure as drawn.

How the values were obtained:
Type in all cases: functional
Streptococcus suis [1] = test: Antimicrobial activity against Streptococcus suis CA isolated from cerebrospinal fluid of patient with meningitis by broth microdilution method
Streptococcus suis [2] = test: Antimicrobial activity against Streptococcus suis UD isolated from cerebrospinal fluid of patient with meningitis by broth microdilution method
Streptococcus pyogenes = test: Ratio of MIC for Streptococcus pyogenes 12RF transconjugant harboring ermB and tetW gene from Streptococcus suis UD to wild type Streptococcus suis UD

Row | MIC (Streptococcus suis [1]) | MIC (Streptococcus suis [2]) | Structure (SMILES) | Ratio (Streptococcus pyogenes)
1 | > 256 µg/mL | 4 µg/mL (≈ 5.45 µM) | CC[C@H]1OC(=O)[C@H](C)[C@@H](O[C@H]2C[C@@](C)(OC)[C@@H](O)[C@H](C)O2)[C@H](C)[C@@H](O[C@@H]2O[C@H](C)C[C@H](N(C)C)[C@H]2O)[C@](C)(O)C[C@@H](C)C(=O)[C@H](C)[C@@H](O)[C@]1(C)O [ERYTHROMYCIN] | 
2 |  |  | NC[C@H]1O[C@H](O[C@H]2[C@H](O)[C@@H](O[C@H]3O[C@H](CO)[C@@H](O)[C@H](N)[C@H]3O)[C@H](N)C[C@@H]2N)[C@H](O)[C@@H](O)[C@@H]1O [KANAMYCIN] | 16
3 |  |  | CN[C@@H]1[C@H](O[C@H]2[C@H](O[C@H]3[C@H](O)[C@@H](O)[C@H](N=C(N)N)[C@@H](O)[C@@H]3N=C(N)N)O[C@@H](C)[C@]2(O)C=O)O[C@@H](CO)[C@H](O)[C@H]1O [STREPTOMYCIN] | 8
4 | 16 µg/mL (≈ 36 µM) | 8 µg/mL (≈ 18 µM) | CN(C)[C@@H]1C(O)=C(C(N)=O)C(=O)[C@@]2(O)C(O)=C3C(=O)c4c(O)cccc4[C@@](C)(O)[C@H]3C[C@@H]12 [TETRACYCLINE] | 
